One data set addresses T1, rat type P2X2/3 receptor (Rattus norvegicus, UniProt P49653+P49654).
T1 construct: expressed in transfected cells; host or cells: CHO cells (selected with G-418)
T1 sequence (P49653 1-472): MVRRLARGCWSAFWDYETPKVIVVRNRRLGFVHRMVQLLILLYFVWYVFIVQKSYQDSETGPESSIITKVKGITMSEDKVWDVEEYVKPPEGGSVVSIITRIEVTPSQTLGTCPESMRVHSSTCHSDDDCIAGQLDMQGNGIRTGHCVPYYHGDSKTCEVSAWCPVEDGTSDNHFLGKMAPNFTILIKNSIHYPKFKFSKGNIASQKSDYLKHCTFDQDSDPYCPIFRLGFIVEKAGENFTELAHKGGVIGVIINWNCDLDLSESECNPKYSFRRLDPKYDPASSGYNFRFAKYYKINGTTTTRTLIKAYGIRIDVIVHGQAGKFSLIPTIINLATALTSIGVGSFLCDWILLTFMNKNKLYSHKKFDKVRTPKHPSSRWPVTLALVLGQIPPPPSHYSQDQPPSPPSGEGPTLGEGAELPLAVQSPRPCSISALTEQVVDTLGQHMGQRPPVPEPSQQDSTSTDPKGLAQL
T1 sequence (P49654 1-397): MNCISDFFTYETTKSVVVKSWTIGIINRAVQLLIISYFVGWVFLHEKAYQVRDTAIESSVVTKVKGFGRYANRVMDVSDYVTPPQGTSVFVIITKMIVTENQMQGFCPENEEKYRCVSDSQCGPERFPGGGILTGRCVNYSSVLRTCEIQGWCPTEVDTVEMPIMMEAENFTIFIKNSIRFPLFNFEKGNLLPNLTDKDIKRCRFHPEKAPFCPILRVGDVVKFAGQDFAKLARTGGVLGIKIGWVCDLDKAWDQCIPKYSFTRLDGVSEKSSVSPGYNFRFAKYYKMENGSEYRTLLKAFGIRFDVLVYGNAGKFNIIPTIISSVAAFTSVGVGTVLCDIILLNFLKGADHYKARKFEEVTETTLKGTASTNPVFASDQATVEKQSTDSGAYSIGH
In words: P2X2/3 receptor inhibitory activity ([14C]-guanidine uptake stimulated by αβ-me ATP in CHO cells). The data set is classed as cell-based. The settings on record: for IC50: CHO cell expressing rat type P2X2/3 receptor, 4 μM αβ-me ATP, [14C]-guanidine, 15 minutes room temperature, read-out: IC50 (concentration which inhibits 50% of the function of P2X2/3 receptor); for P2X2/3,3 receptor inhibitory activity (in words): Table 1. As for the experimental part: On the day before the test, the resulting cells were inoculated onto a 96-well culture plate at a density of about 6×10^4 cells/well and cultured for 24 hours in the medium containing 2 units/ml of apyrase 2.

The conditions of data set [1]: in vivo; cited from earlier work.
The test system of data set [2] is patients of multiple myeloma. The conditions noted are these: oral 6 mg once a day; 24 weeks; cited from earlier work.
Another data set relates to mouse. Briefly: Formalin induced pain behavior. The data set is classed as in vivo.
Data set [3] concerns patients of bone metastasis of breast cancer and bone metastasis of lung cancer. Briefly: Clinical test in patients of bone metastasis of breast cancer and lung cancer. The data set is classed as in vivo, human. The conditions noted are these: 1 or 2 mg once in 2 weeks for 12 weeks; from the initial evaluation time (1st week).
In data set [4] the test system is mice. In words: Acetic acid induced pain behavior (writhing). It counts as in vivo. As for the experimental part: This test was carried out with reference to the method described in Pain, 96, p. […] After 30 minutes thereof, 0.6% acetic acid was intraperitoneally administered (10 ml/kg). Frequency of writhing (a body writhing behavior) occurred within a period of 15 minutes, starting from 2 minutes after the acetic acid administration until 17 minutes thereafter, was measured. The test was carried out twice as the test 1 and test 2. Test on the statistical significant difference between the solvent administration group used as a control group and the test substance administration group was carried out using the Dunnett method.
(In writhing tests, fewer writhes than in controls are read as antinociception.)

The test system of data set [5] is mice. In words: αβ-me ATP induced pain behavior. It counts as in vivo. The conditions noted are these: for αβ-me ATP induced pain behavior (total time of lifting and licking): 30 minutes before αβ-me ATP, significant difference to control. How it is done: 16 (2000). […] Total time of lifting (a behavior of lifting the administered side sole from the floor face) and licking (a behavior of licking and biting the administered side sole) occurred during 5 minutes just after the administration of αβ-me ATP was measured. […] Test on the statistical significant difference between the solvent administration group used as a control group and the test substance administration group was carried out using the Dunnett method.

The subject of the next data set is cancer patients. The settings on record: clinical test; cited from earlier work.
A further data set concerns rat cancer pain model. The settings on record: continuously administered for 19 days; cited from earlier work.

Method for mouse: The test substance or solvent was subcutaneously administered to each mouse at a volume of 10 ml/kg. After 30 minutes thereof, formalin was administered under the skin of one sole (2.0%, 20 μl/body). Total time of lifting (a behavior of lifting the administered side sole from the floor face) and licking (a behavior of licking and biting the administered side sole) occurred during every 5 minutes was measured over 30 minutes starting just after the administration of formalin. By defining the period of from 0 to 5 minutes after the formalin administration as a phase I (Phase I), and that of from 10 to 30 minutes as a phase II (Phase II), the total time of lifting and licking occurred in each phase was calculated.

As for `O=P(O)(O)C(Cl)(Cl)P(=O)(O)O` [clodronate], at rat type P2X2/3 receptor, the IC50 is above 300 µM and the “P2X2/3,3 receptor inhibitory activity (in words)” value is on record as “did not show the P2X2/3,3 receptor inhibitory activity”. Further, in data set [1], the “analgesic action in the tail-flick test” value is on record as “dose-dependent analgesic action”.

With `O=P(O)(O)C(O)(Cc1cnc2ccccn12)P(=O)(O)O` [minodronic acid hydrate], in data set [2], the “bone pain in multiple myeloma patients” value is on record as “improved” and the “used amount of an analgesic in multiple myeloma patients” value is “reduced”. Moreover, in the data set on mouse (30 mg/kg s.c.), the “formalin induced pain behavior, Phase I (0 to 5 minutes)” value is listed as “did not exert influence” and the “formalin induced pain behavior, Phase II (10 to 30 minutes)” value is on record as “suppressed”. The “behavioral side effect at the time of the pain behavior observation” value in the data set with mouse (formalin test) is “not observed”.

Regarding `O=P(O)(O)C(O)(Cc1cnc2ccccn12)P(=O)(O)O` [minodronic acid, 1-hydroxy-2-(imidazo[1,2-a]pyridin-3-yl)ethane-1,1-bisphosphonic acid], the “pain value (bone pain) in patients” value in data set [3] was “reducing tendency of pain value was observed”. The “behavioral side effect at the time of the pain behavior observation” value in the data set with mice [4] (acetic acid test) and in the data set with mice [5] (αβ-me ATP test) was “not observed” in each case. Also, in the data set on mice [4] (s.c., 10 and 30 mg/kg, 0.6% acetic acid i.p.), the “writhing behavior (acetic acid induced)” value was “dose-dependently suppressed”. Besides, the “P2X2/3,3 receptor inhibitory activity (in words)” value at rat type P2X2/3 receptor is listed as “good receptor inhibitory activity”. Moreover, the “αβ-me ATP induced pain behavior (total time of lifting and licking)” value with mice [5] (30 mg/kg i.p.) and in the data set on mice [5] (10 to 50 mg/kg s.c.) was “suppressed” in each case.

Take `NCCC(O)(P(=O)(O)O)P(=O)(O)O` [pamidronate]: on rat type P2X2/3 receptor, the IC50 is above 300 µM and the “P2X2/3,3 receptor inhibitory activity (in words)” value is given as “did not show the P2X2/3,3 receptor inhibitory activity”. The “analgesic action in the tail-flick test” value in data set [1] is “dose-dependent analgesic action”.

Consider `Cc1ccc(C(=O)Nc2ccc(S(=O)(=O)O)c3cc(S(=O)(=O)O)cc(S(=O)(=O)O)c23)cc1NC(=O)c1cccc(NC(=O)Nc2cccc(C(=O)Nc3cc(C(=O)Nc4ccc(S(=O)(=O)O)c5cc(S(=O)(=O)O)cc(S(=O)(=O)O)c45)ccc3C)c2)c1` [suramin], for which, in the data set on cancer patients, the “pain score in cancer patients” value was “reduction of pain score was observed”. Also, on rat type P2X2/3 receptor, the IC50 came out at 194 µM.

`O=P(O)(O)C(O)(Cn1ccnc1)P(=O)(O)O` [zoledronate]: in the data set on rat cancer pain model, the “mechanical allodynia and mechanical hyperalgesia accompanied by cancer pain” value is “inhibit”. Moreover, on rat type P2X2/3 receptor, the IC50 is above 300 µM and the “P2X2/3,3 receptor inhibitory activity (in words)” value is “did not show the P2X2/3,3 receptor inhibitory activity”.

Turning to trinitrophenyl (TNP)-ATP [TNP-ATP], the IC50 on rat type P2X2/3 receptor was found to be 0.18 µM.

The values above are taken from patent publication US20070191311A1, “P2x receptor inhibitor” (priority 2004, published 2007).
